# Test results from patent US12263139B2, “Use of cannabidiol in the treatment of tuberous sclerosis complex” (Jazz Pharmaceuticals Research UK Limited, priority 2017, dated 2025).
# Key:
# AML 621-101 cells = experiment: Wound healing assay in AML cells; format: cell-based
# Description: (i) Angiomyolipomas (AML) cells derived from a Tuberous Sclerosis Complex patient (621-101 cell-line), with a known loss of function of TSC2. […] Zeocin™ was purchased from LifeTechnologies (cat no: R25001) and was used to originally generate the stable cell line (by Prof. Lisa Henske) over two weeks of Zeocin™ selection and then for continued maintenance of the cells in tissue culture (at 100 μg/ml).
# (§1) Tsc2−/− and Tsc2+/+ cell lines were cultured and maintained in DMEM supplemented with 10% (v/v) FBS and 1% (v/v) penicillin-streptomycin in a humidified incubator (5% CO2 at 37° C.). The AML −/− cell lines were cultured and maintained in DMEM supplemented with 15% (v/v) FBS and 1% (v/v) penicillin-streptomycin in a humidified incubator (5% CO2 at 37° C.). For hypoxia, cells were put into a Binder CB150 hypoxic chamber set at 1% 02 for the indicated time points
# (§2) The stock concentration of CBD was made to 20 mM in dimethyl sulfoxide (DMSO). […] The final concentration of the DMSO in the cell culture medium was at a maximum level of 0.05% (v/v).
# Cells were seeded in 60 mm plates and left to reach 100% confluency. Cells were then synchronised in 1% (v/v) FBS DMEM for 24 h and “wounded” with a pipette tip. Dead cells were removed with PBS wash and then subsequently replaced with DMEM (10% (v/v) FBS). […]
# HIF-1α protein = experiment: Western blot of hypoxia induced HIF-1α in AML 621-101; format: cell-based; conditions: CBD at 10 μM
# Description: as §1
# Cells were washed in Phosphate Buffered Saline (PBS) and then lysed directly in sample buffer (62.5 mM Tris HCL, 50 mM DTT, 2% SDS (w/v), 10% Glycerol (w/v), 0.1% Bromophenol blue (w/v) pH 7.6) and sonicated for 5×20 s cycles on full power (30 amplitude microns). Samples were boiled at 95° C. for 10 min. Lysates were resolved by SDS-PAGE and proteins were transferred to polyvinylidene difluoride membranes.
# Membranes were blocked in 5% (w/v) dry milk powder dissolved in Tris-buffered saline containing 0.1% (v/v) Tween, then probed with primary antibody and horse radish peroxidase-conjugated secondary antibody. Proteins were visualized using Enhanced Chemiluminescent solution and Hyperfilm. Antibodies towards ribosomal protein S6 (rpS6), phospho-rpS6 (Ser235/236) were purchased from Cell Signaling Technology. Anti-HIF-1α was obtained from BD transduction laboratories. Statistical Analysis […]
# Tsc2−/− MEFs = experiment: Tumour spheroid growth (soft agar) assay in Tsc2−/− MEFs; format: cell-based, mouse; conditions: 10 μM CBD
# Description: (§3) (ii) Tsc2−/− p53−/− and Tsc2+/+p53−/− mouse embryonic fibroblast (MEF) cell lines (now referred to as Tsc2−/− and Tsc2+/+, respectively).
# The stock concentration of CBD was made to 20 mM in dimethyl sulfoxide (DMSO). CBD was added to culture media to final concentrations of either 5 μM or 10 μM, as indicated). The final concentration of the DMSO in the cell culture medium was at a maximum level of 0.05% (v/v).
# Two-layered soft agar assays were carried out in 6-well plates. All cell lines were plated in complete DMEM media in 0.35% (v/v) agar at (3*10^5) over a 0.6% (v/v) agar layer. The agar was then overlaid with complete DMEM media and spheroids were grown for 14 days at 37° C. in 5% CO2. Media were changed twice a week and new drug was added to media. Pictures were taken using an inverted AMG EVOS microscope equipped with an Olympus camera. Volume of tumour spheroids was measured using ImageJ software.
# [1] = TSC patients having focal onset seizures; cited from earlier work
# Panc-1 cells = experiment: MTT cell viability assay in Panc-1; format: cell-based; conditions: Homo sapiens, 50 μM CBD, 72 h, FIG. 6A, read-out: growth inhibition
# Description: PANC-1 is a human pancreatic carcinoma, epithelial-like cell line; PANC-1 cells are used as an in vitro model of non-endocrine pancreatic cancer for tumorigenicity studies.
# Cell viability was analyzed by the MTT [3-(4,5-dimethylthiazol-2-yl)-2,5-diphenyl tetrazolium bromide] assay. Pancreatic cancer cells were seeded onto each well of a 96-well plate. After 72 h of treatment with CBD, MTT solution 5 mg/ml in PBS was added to each well. The plates were then incubated at 37° C. for an additional 4 h to allow MTT to form formazan crystals by reacting with metabolically active cells. The formazan crystals were solubilized in a 1N isopropanol/HCl 10% solution at 37° C., on a shaking table for 20 min. The absorbance values of the solution in each well were measured at 570 nm using a microplate reader. Cell viability was determined by the formula: cell viability (%)=(absorbance of the treated wells−absorbance of the blank control wells)/(absorbance of the negative control wells−absorbance of the blank control wells)×100%. All MTT experiments were performed in triplicate and repeated at least three times.
# The growth inhibition induced by different concentrations (0.04-50 μM) of CBD on human Panc-1 at 72 h from the beginning of the treatment was evaluated with MTT assay.
# [2] = test system: Tsc2−/− Mouse Embryonic Fibroblast (MEF) cell lines; experiment: Wound healing assay in Tsc2−/− MEFs; format: cell-based; conditions: CBD at 10 and 20 μM; FIG. 1 (A)
# Description: as §3, §1, §2
# Cells were seeded in 60 mm plates and left to reach 100% confluency. Cells were then synchronised in 1% (v/v) FBS DMEM for 24 h and “wounded” with a pipette tip. Dead cells were removed with PBS wash and then subsequently replaced with DMEM (10% (v/v) FBS). Cells were pre-treated for 30 min with either rapamycin, c-MET or STAT3 inhibitors (where indicated) before cytokine stimulation. Pictures were taken before treatment and 12-18 h after treatment using an inverted AMG EVOS microscope equipped with an Olympus camera.
smiles,measurement,setting,value
"C=C(C)[C@@H]1CCC(C)=C[C@H]1c1c(O)cc(CCCCC)cc1O [CBD, Cannabidiol]",reduction of wound closure,AML 621-101 cells; 20 μM CBD,60%
same,reduction of wound closure,"AML 621-101 cells; 5, 10 and 20 μM CBD, FIG. 1 (B)",effective at reducing wound closure
same,hypoxia induced expression of HIF-1α protein,HIF-1α protein,sufficient to block hypoxia induced expression of HIF-1α protein
same,inhibition of tumour spheroid diameter,Tsc2−/− MEFs,Significance to inhibit tumour spheroid diameter was observed
same,treatment of refractory epilepsy,[1],beneficial
same,inhibition at 50 µM,Panc-1 cells,41%
same,block of wound closure,[2],as effective as rapamycin
